In ChEMBL document CHEMBL5729568, “Ras inhibitors” (2023):

What was measured:
[1] = (§1) Biochemical Assay: A variety of Ras proteins may be inhibited by compounds of the present invention (e.g., K-Ras, N-Ras, H-Ras, and mutants thereof at positions 12, 13 and 61, such as G12C, G12D, G12V, G12S, G13C, G13D, and Q61L, and others described herein). The purpose of this biochemical assay is to measure the ability of test compounds to covalently label nucleotide-loaded K-Ras isoforms. […] The sample is incubated at 25? C. for a time period of up to 24 hours prior to quenching by the addition of 10 uL of 5% Formic Acid. Quenched samples are centrifuged at 15000 rpm for 15 minutes in a benchtop centrifuge before injecting a 10 uL aliquot onto a reverse phase C4 column and eluting into the mass spectrometer with an increasing acetonitrile gradient in the mobile phase. Analysis of raw data may be carried out using Waters MassLynx MS software, with % bound calculated from the deconvoluted protein peaks for labeled and unlabeled K-Ras.
[2] = as §1; remark: listed apart in the source
GTPase KRas [3] = molecular target: T1, GTPase KRas (Homo sapiens, UniProt P01116); assay: (§2) The purpose of this biochemical assay is to measure the ability of test compounds to covalently label nucleotide-loaded K-Ras isoforms. […] Analysis of raw data may be carried out using Waters MassLynx MS software, with % bound calculated from the deconvoluted protein peaks for labeled and unlabeled K-Ras.
[4] = as §1; remark: listed apart in the source
GTPase KRas [5] = molecular target: T1, GTPase KRas; assay: as §2; remark: listed apart in the source
[6] = as §1; remark: listed apart in the source
[7] = as §1; remark: listed apart in the source
[8] = as §1; remark: listed apart in the source
[9] = as §1; remark: listed apart in the source
GTPase NRas = GTPase NRas (Homo sapiens, UniProt P01111); assay: as §1
Chain of GTPase NRas (P01111 whole entry, looked up): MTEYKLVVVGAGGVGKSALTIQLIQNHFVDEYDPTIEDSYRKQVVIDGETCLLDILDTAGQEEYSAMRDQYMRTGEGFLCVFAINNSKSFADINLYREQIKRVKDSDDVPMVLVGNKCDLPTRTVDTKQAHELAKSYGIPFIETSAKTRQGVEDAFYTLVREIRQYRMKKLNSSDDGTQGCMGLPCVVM

Row | IC50 [1] | IC50 [2] | IC50 (GTPase KRas [3]) | IC50 [4] | IC50 (GTPase KRas [5]) | IC50 [6] | IC50 [7] | IC50 [8] | IC50 [9] | IC50 (GTPase NRas) | Compound
1 | in the range around 550 nM | in the range around 550 nM | in the range around 550 nM | in the range around 550 nM |  |  |  |  |  |  | C=CC(=O)N1CCN(C(=O)N(C)[C@H](C(=O)N[C@H]2Cc3cc(O)cc(c3)-c3ccc4c(c3)c(c(-c3ccccc3CN(C)C)n4CC)CC(C)(C)COC(=O)[C@@H]3CCCN(N3)C2=O)C(C)C)CC1
2 |  |  |  | in the range around 550 nM | in the range around 0.055 µM |  |  |  |  |  | C=CC(=O)N1CC[C@H](C(=O)N(C)[C@H](C(=O)N[C@H]2Cc3cc(O)cc(c3)-c3ccc4c(c3)c(c(-c3cnccc3COC)n4CC)CC(C)(C)COC(=O)[C@@H]3CCCN(N3)C2=O)C(C)C)C1
3 | in the range around 5500 nM | in the range around 5500 nM | in the range around 5500 nM | in the range around 550 nM | in the range around 0.055 µM |  |  |  |  |  | CCn1c(-c2ccccc2CCOC)c2c3cc(ccc31)-c1cc(O)cc(c1)C[C@H](NC(=O)[C@H](C(C)C)N(C)C(=O)[C@H]1CCN(C(=O)C#CCN(C)C)C1)C(=O)N1CCC[C@H](N1)C(=O)OCC(C)(C)C2
4 |  |  |  |  | in the range around 5.5 µM | in the range around 5.5 µM |  |  |  |  | C=CC(=O)N1CC[C@H](C(=O)N(C)[C@H](C(=O)N[C@H]2Cc3cc(O)cc(c3)-c3ccc4c(c3)c(c(-c3nccnc3COC)n4CC)CC(C)(C)COC(=O)[C@@H]3CCCN(N3)C2=O)C(C)C)C1
5 |  |  | in the range around 550 nM |  |  |  |  |  |  |  | CCn1c(-c2cccnc2COC)c2c3cc(ccc31)-c1cc(O)cc(c1)C[C@H](NC(=O)[C@H](C(C)C)N(C)C(=O)[C@H]1CCN(C(=O)C#CCN(C)C)C1)C(=O)N1CCC[C@H](N1)C(=O)OCC(C)(C)C2
6 |  |  |  |  | in the range around 5.5 µM | in the range around 5.5 µM |  |  |  |  | C=CC(=O)N1CC[C@H](C(=O)N(C)[C@H](C(=O)N[C@H]2Cc3cc(O)cc(c3)-c3ccc4c(c3)c(c(-c3ncccc3COC)n4CC)CC(C)(C)COC(=O)[C@@H]3CCCN(N3)C2=O)C(C)C)C1
7 | in the range around 550 nM | in the range around 550 nM | in the range around 550 nM | in the range around 550 nM | in the range around 5.5 µM | in the range around 0.055 µM | in the range around 550 nM | in the range around 550 nM | in the range around 55 nM | in the range around 550 nM | CCn1c(-c2cccnc2C(C)OC)c2c3cc(ccc31)-c1cccc(c1)C[C@H](NC(=O)[C@H](C(C)C)N(C)C(=O)N1CCC13CN(C(=O)C#CC(C)(C)N(C)C)C3)C(=O)N1CCC[C@H](N1)C(=O)OCC(C)(C)C2 (stereo partly specified)
